“Also recorded” adds a separate entry of the source. Read-outs that look alike come from different tables or passages of the source.
Key:
[1] = in vitro; conditions: dog, CC50 MDCK
[2] = system: influenza A (H1N1) virus (California/07/2009 strain); test: microbe, parasite or virus in culture; type: cell-based
[3] = system: Influenza A (H3N2); test: microbe, parasite or virus in culture; type: cell-based; conditions: H3N2, MDCK, read-out: EC50 Influenza A (H3N2)
[4] = system: measles virus (CC strain); test: microbe, parasite or virus in culture; type: cell-based
[5] = system: dengue virus 2 (New Guinea C strain); test: microbe, parasite or virus in culture; type: cell-based
[6] = system: MERS-CoV (EMC strain); test: microbe, parasite or virus in culture; type: cell-based
[7] = system: Influenza B; test: microbe, parasite or virus in culture; type: cell-based; conditions: MDCK, read-out: EC50 Influenza B
[8] = system: Vero cells; conditions: African green monkey
[9] = in vitro; conditions: African green monkey
[10] = system: MDCK cells; conditions: dog
[11] = system: tacaribe virus (TRVL11573 strain); test: microbe, parasite or virus in culture; type: cell-based; conditions: read-out: Tacaribe virus EC50 TRVL 11573 strain
[12] = in vitro; conditions: African green monkey, Tacaribe virus CC50 Vero
[13] = system: enterovirus-71 (Tainan/4643/98 strain); test: organism not typed; type: cell-based; conditions: Vero 76, read-out: EC50 enterovirus-71
[14] = system: Huh7 cells; conditions: read-out: Yellow fever virus CC50 Huh7, YFV screen
[15] = system: Influenza A (H5N1); test: microbe, parasite or virus in culture; type: cell-based; conditions: H5N1, MDCK, read-out: EC50 Influenza A (H5N1)
[16] = system: Vero 76 cells

Question: Which CC50 [1] does the source give for `CCc1ncnc2c1c(F)cn2[C@@H]1O[C@H](CO)[C@@H](O)[C@H]1O` [3.1r, 6-Ethyl-7-Fluoro-9-β-D-ribofuranosyl-7-deazapurine] here?
Answer: 32 µM

Question: And the EC50 ([2]; Influenza A virus, H1N1, MDCK, read-out: EC50 California/07/2009 strain)?
Answer: 0.34 µM

Question: What about the EC50 ([2]; Influenza A virus, H1N1, MDCK, read-out: EC50 Influenza A (H1N1)) of the same compound?
Answer: 0.34 µM

Question: What about the EC50 ([2]; read-out: EC50 California/07/2009 strain) of the same compound?
Answer: 0.32 µM

Question: What about the EC50 [3] of the same compound?
Answer: < 0.1 µM

Question: What about the EC50 ([4]; Measles morbillivirus, Vero 76, read-out: Measles EC50 CC strain) of the same compound?
Answer: 7.7 µM

Question: What about the EC50 ([4]; read-out: Measles EC50 CC strain) of the same compound?
Answer: 9.6 µM

Question: And the “activity against dengue virus 2 in words” value [5]?
Answer: low micromolar to submicromolar activity

Question: And the “activity against MERS-CoV in words” value [6]?
Answer: moderately active with low selectivity index; also recorded: low micromolar to submicromolar activity

Question: And the EC50 ([6]; Middle East respiratory syndrome-related coronavirus, Vero 76, read-out: MERS-CoV EC50 EMC strain)?
Answer: 3 µM

Question: And the EC50 ([6]; read-out: MERS-CoV EC50 EMC strain)?
Answer: 2.5 µM

Question: What about the EC50 [7] of the same compound?
Answer: < 0.1 µM

Question: What about the CC50 [8] of the same compound?
Answer: 59 µM

Question: And the CC50 ([9]; CC50)?
Answer: > 100 µM

Question: And the CC50 ([9]; Measles CC50 Vero 76)?
Answer: 32 µM

Question: What about the CC50 [10] of the same compound?
Answer: 43 µM

Question: And the EC50 ([11]; Mammarenavirus tacaribeense, Vero)?
Answer: > 63 µM

Question: What about the EC50 [11] of the same compound?
Answer: 43 µM

Question: What about the CC50 [12] of the same compound?
Answer: 63 µM

Question: What about the EC50 [13] of the same compound?
Answer: > 100 µM

Question: What about the CC50 ([14]; Neutral Red) of the same compound?
Answer: 1.9 µM

Question: What about the CC50 ([14]; Visual) of the same compound?
Answer: > 100 µM

Question: What about the EC50 [15] of the same compound?
Answer: < 0.1 µM

Question: What about the CC50 ([16]; African green monkey) of the same compound?
Answer: 42 µM

Question: What about the CC50 ([16]; read-out: MERS-CoV CC50 Vero 76, Neutral Red, MERS-CoV screen) of the same compound?
Answer: 46 µM

Question: And the CC50 ([16]; read-out: MERS-CoV CC50 Vero 76, Visual, MERS-CoV screen)?
Answer: 100 µM
